Patent US20200069664A1, “METHODS FOR TREATING INFECTION” (Salix Pharmaceuticals, Ltd, priority 2010, published 2020)
“Also recorded” adds a separate entry of the source. Where two headings read alike, the source gives them in different places.

Experiments:
[1] = system: B. anthracis Sterne strain 7702; assay type: cell-based; conditions: pretreated A549 cells, vs other treatment groups
EAEC [2] = experiment: Effect of dialyzed supernatants of treated HEp-2 cells on EAEC adherence; assay type: cell-based, E. coli; conditions: HEp-2 treated 24 h with 64 mg/ml (so in the source); chambered slides with or without HEp-2 cells, 3 h
Description: Supernatant dialysis. HEp-2 cells were cultured in T-175 flasks as described above. […] After 24 h, the medium was collected, loaded into regenerated cellulose dialysis tubing (cutoff, 6 to 8 kDa; Spectra/Por, Rancho Domiguez, Calif.), and dialyzed against 4 liters of PBS changed four times. Each dialysis step lasted at least 6 h and was carried out at 4° C. Dialyzed supernatants were either used immediately in adherence assays or stored at −20° C. until use.
The effect of supernatants on EAEC adherence was determined by mixing EAEC with the dialyzed media from the different antibiotic (or control) treatment groups and adding the bacteria to HEp-2 cells cultured in chambered slides or to chambered slides with no HEp-2 cells. Adherence was visualized microscopically as described above.

[3] = system: enterotoxigenic E coli strains; experiment: MIC against rifaximin by agar dilution, ETEC isolates; assay type: cell-based
From the text: (§1) Five enterotoxigenic E coli strains, 2 enteroaggregative E coli strains, and 1 S sonnei isolate were included in the study. The isolates had been identified previously from patients with TD acquired in Guadalajara, Mexico, during the summer of 2004 (5).

[4] = system: enteroaggregative E coli strains; experiment: MIC against rifaximin by agar dilution, EAEC isolates; assay type: cell-based; conditions: 2 EAEC isolates
From the text: as §1

S sonnei isolate [5] = experiment: MIC against rifaximin by agar dilution, S sonnei isolate; assay type: cell-based
From the text: as §1

EAEC isolates = experiment: Isolate viability after rifaximin exposure, EAEC; assay type: cell-based, E coli
S sonnei isolate [6] = experiment: Isolate viability after rifaximin exposure, S sonnei; assay type: cell-based
ETEC isolates = assay type: cell-based, E coli
EAEC strains = experiment: HCT-8 cell culture assay for IL-8 release after infection with rifaximin-exposed EAEC; assay type: cell-based, E coli
Description: The human intestinal adenocarcinoma cell line, HCT-8, was used to study inflammatory modulators as previously published (Huang, 2004 #15). Monolayers of HCT-8 cells (ATCC CCL-244; American Type Culture Collection, Rockville, Md.) were grown in 24-well culture plates (Corning Costar, Corning, N.Y.) in an RPMI 1640 medium (Sigma-Aldrich Co, St Louis, Mo.) supplemented with 100 U/mL of penicillin, 100 μg/mL of streptomycin, and 0.25 μg/mL of amphotericin B. They were maintained in a medium supplemented with 10% fetal bovine serum (HyClone, Logan, Utah) and grown until approximately 4×10^5 cells/well confluence.
HCT-8 cells were infected with EAEC strains recovered from MacConkey agar in triplicate at a 100:1 ratio in an antibiotic- and serum-free RPMI 1640 medium. Cells were incubated for 3 hours in a humidified chamber at 37° C. in an atmosphere containing 5% CO2, after which supernatants were collected. The supernatant concentration of IL-8 in each well was determined by using a commercially available enzyme-linked immunosorbent assay kit for human IL-8 (R&D Systems, Minneapolis, Minn.). All samples were tested twice, and the average value was reported.

EAEC [7] = experiment: MIC50 previously established for EAEC; assay type: cell-based, E. coli; conditions: previously established in our laboratory
[8] = oral administration, healthy volunteers (Descombe et al. 1994); cited from earlier work
HEp-2 cells = experiment: Cytokine array of supernatants of treated HEp-2 cells; conditions: 64 μg/ml, 24 h; Panomics array of 36 cytokines
C difficile isolates = experiment: In vitro susceptibility of C difficile isolates (agar dilution for rifaximin, Etest for rifampin)
[9] = rifaximin 8 mg/L, exposure 4 hrs
[10] = rifaximin 8 mg/L, exposure 8 hrs
[11] = rifaximin 8 mg/L, exposure 18 hrs
[12] = rifaximin 8 mg/L, exposure 24 hrs
[13] = rifaximin 32 mg/L, exposure 4 hrs
[14] = rifaximin 32 mg/L, exposure 8 hrs
[15] = rifaximin 32 mg/L, exposure 18 hrs
[16] = rifaximin 64 mg/L, exposure 4 hrs
[17] = rifaximin 64 mg/L, exposure 8 hrs
[18] = resistance = MIC≥32 μg/mL, for rifaximin b194 says 'rifaximin alone'

(2S,16Z,18E,20S,21S ,22R, 23R,24R,255,265,275,28E)-5,6,21,23,25 Pentahydroxy-27-methoxy-2,4,11,16,20,22,24,26-octamethyl-2,7-(epoxypentadeca-(1,11,13) trienimino) benzofuro (4,5-e) pyrido(1,2,-a) benzimidazole-1,15(2H)-dione,25-acetate [Rifaximin]
Internalization of B. anthracis ([1]; gentamicin protection): significant reductions | Adherence of B. anthracis [1]: significant reductions | Adherence of EAEC mixed with dialyzed supernatants from treated HEp-2 cells (EAEC [2]): adhered poorly; also recorded: affected EAEC adherence | MIC ([3]; 2 ETEC isolates): 128 µg/mL | MIC ([3]; 3 ETEC isolates): 64 µg/mL | MIC [4]: 64 µg/mL | MIC (S sonnei isolate [5]): 16 µg/mL | EAEC viability (EAEC isolates; rifaximin 8 mg/L for 24 hours): viable | EAEC viability (EAEC isolates; rifaximin 8, 32, and 64 mg/L at 4, 8, and 18 hours): viable | EAEC viability (EAEC isolates; rifaximin 32 and 64 mg/L for 24 hours): no viable isolates were recovered; also recorded: not viable | S sonnei viability (S sonnei isolate [6]; rifaximin 8 mg/L for 4, 8, 18, and 24 hours): viable | S sonnei viability (S sonnei isolate [6]; rifaximin 32 or 64 mg/L at any time point examined): not viable | Expression of virulence factors (ST, LT, CS2/CS3, CS6) by ETEC isolates (ETEC isolates; 4- and 8-hour exposure to rifaximin 8, 32, and 64 mg/L): expressed all examined virulence factors | Expression of virulence factors (ST, LT, CS2/CS3, CS6) by ETEC isolates (ETEC isolates; 18 hours, rifaximin 8 mg/L): all virulence factors were expressed | Expression of virulence factors (ST, LT, CS2/CS3, CS6) by ETEC isolates (ETEC isolates; 18 hours, rifaximin 32 mg/L): no factors were seen | Expression of virulence factors (ST, LT, CS2/CS3, CS6) by ETEC isolates (ETEC isolates; 24 hours, rifaximin 8 mg/L): did not express any virulence factors | Expression of CS2/CS3 in ETEC isolates (ETEC isolates; [9]): + | Expression of CS6 in ETEC isolates (ETEC isolates; [9]): + | Expression of LT in ETEC isolates (ETEC isolates; [9]): + | Expression of ST in ETEC isolates (ETEC isolates; [9]): + | Expression of ST/LT in ETEC isolates (ETEC isolates; [9]): + | Expression of CS2/CS3 in ETEC isolates (ETEC isolates; [10]): + | Expression of CS6 in ETEC isolates (ETEC isolates; [10]): + | Expression of LT in ETEC isolates (ETEC isolates; [10]): + | Expression of ST in ETEC isolates (ETEC isolates; [10]): + | Expression of ST/LT in ETEC isolates (ETEC isolates; [10]): + | Expression of CS2/CS3 in ETEC isolates (ETEC isolates; [11]): + | Expression of CS6 in ETEC isolates (ETEC isolates; [11]): + | Expression of LT in ETEC isolates (ETEC isolates; [11]): + | Expression of ST in ETEC isolates (ETEC isolates; [11]): + | Expression of ST/LT in ETEC isolates (ETEC isolates; [11]): + | Expression of CS2/CS3 in ETEC isolates (ETEC isolates; [12]): − | Expression of CS6 in ETEC isolates (ETEC isolates; [12]): − | Expression of LT in ETEC isolates (ETEC isolates; [12]): − | Expression of ST in ETEC isolates (ETEC isolates; [12]): − | Expression of ST/LT in ETEC isolates (ETEC isolates; [12]): − | Expression of CS2/CS3 in ETEC isolates (ETEC isolates; [13]): + | Expression of CS6 in ETEC isolates (ETEC isolates; [13]): + | Expression of LT in ETEC isolates (ETEC isolates; [13]): + | Expression of ST in ETEC isolates (ETEC isolates; [13]): + | Expression of ST/LT in ETEC isolates (ETEC isolates; [13]): + | Expression of CS2/CS3 in ETEC isolates (ETEC isolates; [14]): + | Expression of CS6 in ETEC isolates (ETEC isolates; [14]): + | Expression of LT in ETEC isolates (ETEC isolates; [14]): + | Expression of ST in ETEC isolates (ETEC isolates; [14]): + | Expression of ST/LT in ETEC isolates (ETEC isolates; [14]): + | Expression of CS2/CS3 in ETEC isolates (ETEC isolates; [15]): − | Expression of CS6 in ETEC isolates (ETEC isolates; [15]): − | Expression of LT in ETEC isolates (ETEC isolates; [15]): − | Expression of ST in ETEC isolates (ETEC isolates; [15]): − | Expression of ST/LT in ETEC isolates (ETEC isolates; [15]): − | Expression of CS2/CS3 in ETEC isolates (ETEC isolates; [16]): + | Expression of CS6 in ETEC isolates (ETEC isolates; [16]): + | Expression of LT in ETEC isolates (ETEC isolates; [16]): + | Expression of ST in ETEC isolates (ETEC isolates; [16]): + | Expression of ST/LT in ETEC isolates (ETEC isolates; [16]): + | Expression of CS2/CS3 in ETEC isolates (ETEC isolates; [17]): + | Expression of CS6 in ETEC isolates (ETEC isolates; [17]): + | Expression of LT in ETEC isolates (ETEC isolates; [17]): + | Expression of ST in ETEC isolates (ETEC isolates; [17]): + | Expression of ST/LT in ETEC isolates (ETEC isolates; [17]): + | IL-8 production from HCT-8 cells elicited by rifaximin-exposed EAEC (EAEC strains; all other time points and rifaximin concentrations): either undetected following HCT-8 infection with EAEC strains, or EAEC strains were not viable | IL-8 production from HCT-8 cells elicited by rifaximin-exposed EAEC (EAEC strains; rifaximin 64 mg/L for 4 hours): caused IL-8 production | IL-8 production from HCT-8 cells elicited by rifaximin-exposed EAEC (EAEC strains; rifaximin 8 or 32 mg/L for 4 or 8 hours): elicited production of IL-8 | IL-8 production from HCT-8 cells elicited by rifaximin-exposed EAEC (EAEC strains; viable isolates, rifaximin 8, 32, or 64 mg/L for 18 hours or 8 mg/L for 24 hours): did not elicit IL-8 production | MIC50 for EAEC (EAEC [7]): 64 µg/mL | Systemic absorption [8]: negligible | Cytokines detected in supernatants of treated HEp-2 cells (HEp-2 cells): detectable levels of RANTES and IL-4 only; also recorded: reduced the expression of various proinflammatory cytokines | MIC50 (C difficile isolates; 359 C difficile isolates): <0.01 µg/mL | MIC90 (C difficile isolates; 359 C difficile isolates): 0.25 µg/mL | MIC50 (C difficile isolates; 359 C difficile isolates, listed as rifaximin): < 0.01 µg/mL | Isolates resistant to both rifampin and rifaximin, percent of 359 (C difficile isolates; MIC≥32 μg/mL): 2% | Resistant isolates, number of 359 (C difficile isolates; [18]): 11 | Resistant isolates, percent of 359 (C difficile isolates; [18]): 3%
